US8609695B2, “Methods of treating and/or suppressing insulin resistance” (Endorecherche, Inc., priority 1999, dated 2013)

Assays:
Type in all cases: in vivo, Rattus norvegicus
[1] = system: ovariectomized female rats; assay: SERM comparison, energy balance and lipid-lipoprotein metabolism (Example 10); conditions: OVX rats, 20 days
How it was run: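 Ovariectomized rats on a high-carbohydrate diet dosed by oral gavage 0.5 mg/rat in 0.4% methylcellulose for 20 days; sham-operated group included. Body weight and food intake every 2 days, DEXA body fat on Day 17. Necropsy on day 21, ~24 h post-dose after 6 h fast: serum lipids, glucose, insulin, leptin, tissue weights.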

[2] = system: lean and obese Zucker female rats; assay: Energy balance and lipid-lipoprotein metabolism in Zucker female rats (Example 8B); conditions: for Lipoprotein lipase activity White retroperitoneal / Lipoprotein lipase activity soleus / Plasma glucose / Plasma insulin / Plasma total cholesterol / Plasma triglycerides / Weight: 2.5 mg/kg orally once daily, 14 days
Protocol: The objective of this study was to determine the cffect of EM-652.HCl on energy balance and lipid-lipoprotein metabolism in lean and obese Zucker female rats. For this purpose, EM-652.HCl (2.5 mg/kg) was administered orally (gavage) once daily for 14 days to intact lean and obese Zucker female rats.
d) Diet: • During the acclimation period, rats received a commercial rodent diet (Purina, #5075) and tap water ad libitum. During study period, rats received the following diet (diet #3) composed of (g/100 g): Starch, 31.2; Dextrose, 31.2; Casein, 20.0; Corn oil, 6.4; dl-Methionine, 0.3; Vitamin mix, 1.0; AIN-76 mineral mix, 4.9; Fiber, 5.0. Rats were fasted (with access to water only) around 07 h00 the morning of their necropsy day. Randomixation:
Sixteen lean and sixteen obese intact female rats were assigned to 4 groups of 8 rats for conduct of the study outlined below.
Administration of the tested compound or vehicle started on Day 1 of the study. The tested compound EM-652.HCl was given as suspension in 0.4% methylcellulose by oral gavage (0.5 ml/gavage/rat) once daily for 14 days. Rats from control groups received the vehicle alone (0.5 ml/gavage/rat) for the same time period.
During the acclimation period, animals were weighed two days prior to the start of dosing for randomization. Then, rats were weighed on day 1 of the study and every 2 days during the study period as well as on the day of necropsy. Body weights were recorded with a precision of 1 g.
Following an approximative 6-hour fasting period, animals were necropsied (approximately 30 hours after the last dosing). They were anesthesized with ketamine-xylazine and blood drawn by cardiac punction.
Blood lipids (Total cholesterol (CHOL) and Triglycerides (TG)) and glucose were measured on frozen plasma samples using the Boehringer Mannheim Diagnostic Hitachi 911 Analyzer (Boehringer Mannheim Diagnostic Laboratory Systems). Circulating hormones and substrates (Leptin, Insulin, corticosterone) were measured on frozen plasma samples with the following kits: • Leptin: Linco RIA kit • Insulin: Linco RIA kit Organs and Tissues Collected
The retroperitoneal adipose tissue and the soleus (muscle) were collected and frozen in liquid nitrogen for further determination of lipoprotein lipase (LPL) activity.

[3] = system: ovariectomized female rats; assay: Uterine weight, fat and lipid, 20-day treatment (Example 13); conditions: 20 days
Protocol: The objective of this study was to compare the effect on uterine, weight, fat and blood lipids following treatment with EM-652.HCl, ERA-923 and lasofoxifene, administered alone or in combination with EM-652.HCl, to ovariectomized female rats. For this purpose, each compound was administered orally for 20 days to ovariectomized female rats and at the end of the treatment period, the uterus and fat were collected and weighed.
d) Diet: • Certified Rodent feed (Lab Diet #5002, pellets) and tap water were provided ad libitum. Randomization:
Seventy rats were separated into 7 groups of 9 to 11 animals for conduct of the study outlined below:
Animals from groups 2 to 9 were ovariectomized under Isoflurane-induced anesthesia on Day 7 of the study.
The vehicle or tested compounds were given as suspension in 0.4% methylcellulose by oral gavage (0.5 ml/gavage/rat) from Day 2 to Day 21 of the study.
Rats were weighed on Study Day 1 and at the necropsy (SD 22).
Approximately 24 hours after the last dosing, overnight fasted rats under Isoflurane-induced anesthesia were killed by exsanguination at the abdominal aorta.
Uteri and retroperitonal adipose tissue were removed and weighed.

[4] = high carbohydrate diet, 0.5 mg/rat oral gavage
[5] = OVX rats, commercial rodent diet, 0.5 mg oral, EM-652.HCl 2.5 mg in combinations

Compound: CC1=C(c2ccc(O)cc2)[C@H](c2ccc(OCCN3CCCCC3)cc2)Oc2cc(O)ccc21.Cl [EM-652.HCl, (S)-(+)-7-hydroxy-3-(4′-hydroxyphenyl)-4-methyl-2-(4″-(2′″-piperidino-ethoxy)phenyl)-2H-1-benxopyran hydrochloride]
- Serum insulin (in words) ([1]; 0.5 mg/rat): decreased
- Brown adipose tissue Lipoprotein lipase activity [1, 4]: 900 ± 91 μU/g protein
- Brown adipose tissue weight [1, 4]: 0.339 ± 0.038 g
- Cumulative food intake [1, 4]: 324 ± 5 g
- Serum glucose [1, 4]: 15.9 ± 1.4 mmol/L
- Serum insulin [1, 4]: 0.122 ± 0.021 nmol/L
- Serum leptin [1, 4]: 1.10 ± 0.22 ng/mL
- Serum triglycerides [1, 4]: 0.91 ± 0.17 mmol/L
- Soleus muscle Lipoprotein lipase activity [1, 4]: 14.5 ± 4.1 μU/g protein
- Soleus muscle weight [1, 4]: 0.118 ± 0.018 g
- Total weight [1, 4]: 252 ± 4 g
- VastusLateralis muscle weight [1, 4]: 1.00 ± 0.047 g
- White adipose tissue inguinal Lipoprotein lipase activity [1, 4]: 684 ± 216 μU/g protein
- White adipose tissue inguinal weight [1, 4]: 0.244 ± 0.028 g
- White adipose tissue retroperitoneal Lipoprotein lipase activity [1, 4]: 1917 ± 365 μU/g protein
- White adipose tissue retroperitoneal weight [1, 4]: 1.32 ± 0.21 g
- Lipoprotein lipase activity White retroperitoneal ([2]; lean Zucker female rats): 1349 ± 246 μU/g protein
- Lipoprotein lipase activity soleus ([2]; lean Zucker female rats): 60.8 ± 11.1 μU/g protein
- Plasma glucose ([2]; lean Zucker female rats): 9.60 ± 0.41 mmol/L
- Plasma insulin ([2]; lean Zucker female rats): 0.063 ± 0.012 nmol/L
- Plasma total cholesterol ([2]; lean Zucker female rats): 1.57 ± 0.14 mmol/L
- Plasma triglycerides ([2]; lean Zucker female rats): 0.83 ± 0.07 mmol/L
- Weight ([2]; lean Zucker female rats): 154 ± 5 g
- reduction of plasma insulin ([2]; lean female Zucker rats, 2.5 mg/kg/day): 48%
- Lipoprotein lipase activity White retroperitoneal ([2]; obese Zucker female rats): 3819 ± 485 μU/g protein
- Lipoprotein lipase activity soleus ([2]; obese Zucker female rats): 36.6 ± 7.1 μU/g protein
- Plasma glucose ([2]; obese Zucker female rats): 11.70 ± 0.47 mmol/L
- Plasma insulin ([2]; obese Zucker female rats): 0.515 ± 0.091 nmol/L
- Plasma total cholesterol ([2]; obese Zucker female rats): 3.27 ± 0.97 mmol/L
- Plasma triglycerides ([2]; obese Zucker female rats): 22.20 ± 4.44 mmol/L
- Weight ([2]; obese Zucker female rats): 291 ± 9 g
- effect on plasma insulin ([2]; obese female Zucker rats, 2.5 mg/kg/day): no significant effect
- OVX-induced increase in total serum cholesterol levels ([3]; 0.5 mg): completely prevented
- prevention of body weight increase induced by ovariectomy ([3]; OVX rats, 0.5 mg): 64%
- Cholesterol [3, 5]: 1.00 ± 0.11 mmol/L
- Final Body Weight [3, 5]: 238 ± 4 g
